Laboratory results reported in patent EP2987533B1, “7-substituted piperazin-1-yl fluoroquinolone compounds, their use in the treatment of cancer, pharmaceutical compositions and a method for preparation” (priority 2014, dated 2016).

Tested on: 60 human tumor cell line panel
Test: NCI 60 cell line one-dose SRB primary anticancer assay
Format: cell-based
Conditions: 60 cell lines assay in one dose, 10µM (title; head prints 10.0 mM), 48 h; for inhibition at 10 µM: Homo sapiens, read-out: MGI % (Mean growth inhibition percentage)
Description: A primary anticancer assay was performed for an approximately 60 human tumor cell line panel derived from nine neoplastic diseases, in accordance with the protocol of the Drug Evaluation Branch, National Cancer Institute, Bethesda, MD (Monks A. et al., J. Natl. Cancer Inst 1991, 83, 757-766; Boyd M.R. and Paull K.D., Drug. Dev. Res. 1995, 34, 91-109; Shoemaker R.H., Nat. Rev. Cancer 2006, 6, 813-823). Briefly, tested compounds were added to the culture at a single concentration (10^-5M), and the cultures were incubated for 48 h. End point determinations were made with a protein binding dye, sulforhodamine B (SRB). The results for each tested compound were reported as the growth percentage of the treated cells when compared to that of the untreated control cells. The percentage growth was evaluated spectrophotometrically versus controls not treated with test agents.

## O=C(O)c1cn(C2CC2)c2cc(N3CCNCC3)c(F)cc2c1=O [Ciprofloxacin (b), Ciprofloxacin, reference compound]
  Most sensitive cell lines: Renal Cancer (UO-31, A498)
  PCE (Positive cytotoxic effect: ratio between number of cell lines with percentage growth inhibition from 10 to >100 and total number of cell lines): 2/57
  RGI % (Range of growth inhibition percentage): 28.85 to 13.76%
  inhibition at 10 µM: -1.41%

## O=C(O)c1cn(C2CC2)c2cc(N3CCN(S(=O)(=O)c4ccc(Cl)cc4)CC3)c(F)cc2c1=O [Compound 1b]
  Most sensitive cell lines: Melanoma (LOX IMVI, M14), Renal Cancer (A498, CAKI-1, UO-31), Prostate Cancer (PC-3), Breast Cancer (T-47D)
  PCE (Positive cytotoxic effect: ratio between number of cell lines with percentage growth inhibition from 10 to >100 and total number of cell lines): 7/53
  RGI % (Range of growth inhibition percentage): 59.75 to 10.12%
  inhibition at 10 µM: 3.5%

## CCn1cc(C(=O)O)c(=O)c2cc(F)c(N3CCN(S(=O)(=O)c4ccc(OC)c(OC)c4)CC3)cc21 [Compound 4a]
  Most sensitive cell lines: Leukemia (MOLT-4, SR), CNS Cancer (SF-268, SNB-75) Melanoma (LOX IMVI, M14), Renal Cancer (UO-31), Prostate Cancer (PC-3), Breast Cancer (T-47D)
  PCE (Positive cytotoxic effect: ratio between number of cell lines with percentage growth inhibition from 10 to >100 and total number of cell lines): 9/58
  inhibition at 10 µM: 2.33%

## COc1ccc(S(=O)(=O)N2CCN(c3cc4c(cc3F)c(=O)c(C(=O)O)cn4C3CC3)CC2)cc1OC [Compound 4b]
  Most sensitive cell lines: NSC Lung Cancer (HOP-62, HOP-92), CNS Cancer (SNB-75), Melanoma (LOX IMVI), Renal Cancer (UO-31), Breast Cancer (T-47D)
  PCE (Positive cytotoxic effect: ratio between number of cell lines with percentage growth inhibition from 10 to >100 and total number of cell lines): 6/58
  RGI % (Range of growth inhibition percentage): 35.09 to 10.43%
  inhibition at 10 µM: 1.84%

## COc1ccc(S(=O)(=O)N2CCN(c3cc4c(cc3F)c(=O)c(C(=O)O)cn4C3CC3)CC2)c(OC)c1 [Compound 5b]
  Most sensitive cell lines: Leukemia (CCRF-CEM, HL-60(TB), K-562, MOLT-4, PRMI-8226, SR), NSC Lung Cancer (HOP-62, NCI-H226), CNS Cancer (SF-268, SF-539, SNB-19, SNB-75), Melanoma (LOX IMVI, SK-MEL-5, UACC-62), Renal Cancer (A498, UO-31), Breast Cancer (T-47D, MDA-MB-468)
  PCE (Positive cytotoxic effect: ratio between number of cell lines with percentage growth inhibition from 10 to >100 and total number of cell lines): 19/58
  RGI % (Range of growth inhibition percentage): 46.83 to 10.48%
  inhibition at 10 µM: 7.33%

## O=C(O)c1cn(C2CC2)c2cc(N3CCN(CCN4CCOCC4)CC3)c(F)cc2c1=O [Compound 8b]
  Most sensitive cell lines: NSC Lung Cancer (HOP-92, NCI-H522), Melanoma ( MALME-3M), Renal Cancer (UO-31), Prostate Cancer (PC-3)
  PCE (Positive cytotoxic effect: ratio between number of cell lines with percentage growth inhibition from 10 to >100 and total number of cell lines): 5/57
  RGI % (Range of growth inhibition percentage): 24.51 to 10.05%
  inhibition at 10 µM: -2.2%

## O=C(O)c1cn(C2CC2)c2cc(N3CCN(CCN4C(=O)c5ccccc5C4=O)CC3)c(F)cc2c1=O [Compound 9b]
  Most sensitive cell lines: CNS Cancer (SNB-75), Renal Cancer (UO-31), Breast Cancer (MCF7)
  PCE (Positive cytotoxic effect: ratio between number of cell lines with percentage growth inhibition from 10 to >100 and total number of cell lines): 3/58
  RGI % (Range of growth inhibition percentage): 36.83 to 13.18%
  inhibition at 10 µM: -2.69%

## O=C(O)c1cn(C2CC2)c2cc(N3CCN(CCCN4C(=O)c5ccccc5C4=O)CC3)c(F)cc2c1=O [Compound 10b]
  Most sensitive cell lines: Leukemia (CCRF-CEM, PRMI-8226), Renal Cancer (UO-31)
  PCE (Positive cytotoxic effect: ratio between number of cell lines with percentage growth inhibition from 10 to >100 and total number of cell lines): 3/57
  RGI % (Range of growth inhibition percentage): 38.76 to 13.64%
  inhibition at 10 µM: -4.16%
